Laboratory results: US7105620B2, “3,4-alkylenedioxy-thiophene copolymers” (Agfa Gevaert, priority 2001, dated 2006)
≈ marks a conversion by molar mass, not a printed value.

Test: Solubility of 3,4-alkylenedioxythiophene compounds in water at 25° C.
Type: physicochemical
Details: visually adjudged dissolved; for solubility: thermodynamic from solid
Experimental: The solubility of the 3,4-alkylenedioxythiophene compounds was determined by adding a particular quantity thereof with stirring to sufficient water so that all the monomer was visually adjudged to have dissolved.

Molecule: OCC1COc2cscc2O1 (stereo not drawn) [M1, (2,3-dihydro-thieno[3,4-b][1,4]dioxin-2-yl)-methanol]
- solubility: ~10000 µg/mL (≈ 58.1 mM)

Molecule: OC1COc2cscc2OC1 [M2, 3,4-dihydro-2H-thieno[3,4-b][1,4]dioxepin-3-ol]
- solubility: ~8200 µg/mL (≈ 47.6 mM)

Molecule: O=C(O)COCC1COc2cscc2O1 (stereo not drawn) [M3, (2,3-dihydro-thieno[3,4-b][1,4]dioxin-2-yl-methoxy)-acetic acid]
- solubility: ~2700 µg/mL (≈ 11.7 mM)

Molecule: COCCOCCOCCOCC1COc2cscc2O1 (stereo not drawn) [M4, 2-{2-[2-(2-methoxy-ethoxy)-ethoxy]-ethoxymethyl}-2,3-dihydro-thieno[3,4-b][1,4]dioxine]
- solubility: ~4500 µg/mL (≈ 14.1 mM)

Molecule: O=S(=O)([O-])CCCCOCC1COc2cscc2O1.[Na+] (stereo not drawn) [M6, 4-(2,3-dihydro-thieno[3,4-b][1,4]dioxin-2-ylmethoxy)-butane-1-sulfonic acid sodium salt]
- solubility: ~167000 µg/mL

Molecule: Polyethylene Oxide Substituted (2,3-dihydro-thieno[3,4-b][1,4]dioxin-2-yl)-methanol [M5]
- Solubility in water at 25° C.: ca. >128 g/L
